For orientation: melting point means the temperature of the solid-liquid transition.

`O=C(c1ccc(Nc2ccnc3cc(C(F)(F)F)ccc23)cc1)N1CCC(S(=O)c2ccc(F)cc2)CC1` (stereo unspecified) showed a melting point of 215 to 216 °C.

`C=C=Cn1c(=O)sc2cc(F)c(-n3c(=O)cc(C)n(C)c3=O)cc21` yielded a melting point of more than 250 °C.

In turn, `Cc1cc(F)c(-n2cnc3ccccc3c2=O)cc1SCC(F)(F)F` showed a melting point of 145 to 147 °C.

In the case of `Cc1c(NCCN)nc(=O)n(C)c1N`, the melting point was in the range of 186 to 188 °C.

`C(#Cc1cnc2ccccc2c1)CCN1CCN(c2ccccn2)CC1` had a melting point of 76.5 to 77 °C.

Turning to `CCC1(CC)C(=O)Nc2ccc(-c3ccc(C#N)n3C)cc21`, the melting point lay within 233 to 235 °C.

Take `COc1cc2c(cc1C)CCN(C)C2C1(C2C=CCCC2)CCC1` (stereo unspecified): the melting point was in the range of 124 to 125 °C.

For `CCN(CC)C(=O)C=Cc1ccc(-c2ccccc2)cc1`, the melting point stood at 113 °C.

As for `CCN(CC)CCn1cc(C(=O)NCc2ccc(Cl)cc2)c(=O)c2cc(C#CCO)ccc21`, the melting point is 145 to 148 °C.

In turn, `COc1ccc(S(=O)(=O)Nc2cccnc2Nc2ccccc2OC)cc1` came in with a melting point of 159 to 160 °C.

As to `CC1(C)Oc2ccc([N+](=O)[O-])cc2C(C(N)=O)=C1O`, the melting point lay in the range of 189 to 191 °C.

For `CNc1cc(NS(=O)(=O)c2ccc(Cl)cc2)nc(NC)n1`, the melting point is 272 to 273 °C.

`CN1C(C(=O)Nc2ccc(Cl)ccc2=O)=C(O)c2sccc2S1(=O)=O` showed a melting point of 243 to 245 °C.

Turning to `CC(C)(C)c1cc(-c2nnc(NCCO)s2)cc(C(C)(C)C)c1O`, the melting point lay in the range of 212 to 214 °C.

Turning to `CNc1ccc(C#N)c(F)c1`, the melting point lay within 110 to 112 °C.

As for `CC(C)C1Cc2ccccc2P1c1ccccc1P1c2ccccc2CC1C(C)C` (single isomer, unassigned; (+)), the melting point was in the range of 70 to 71 °C.

`NNc1nc(Cl)nc2cccc(F)c12`: the melting point was more than 280 °C.

The molecule `CC(=O)NC(C(=O)O)c1ccc2occc2c1` (stereo unspecified) yielded a melting point of 230 to 232 °C.

On to `COc1ccc(NC(=O)c2ccc(Br)cc2)cc1N1CCN(C(=O)OC(C)(C)C)CC1`, for which the melting point lay within 156 to 158 °C.

Molecule `CC(C)(C)c1ccc(/C=N/OCCOc2ccc(C(=O)O)c(OC(=O)c3ccccc3)c2)cc1` showed a melting point of 129 to 131 °C.

Regarding `N#CCCS(=O)(=O)c1ccc(S(=O)(=O)Cl)cc1`, the melting point lay in the range of 124 to 125 °C.

In turn, `COc1cc(C)c(C(=O)c2c(C(F)(F)F)ccnc2Cl)cc1OCc1ccccc1` had a melting point of 116 to 117 °C.

With `COC(=O)C=CC=Cc1ccccc1CNC(=O)OC(C)(C)C`, the melting point lay in the range of 96 to 97.5 °C.

The molecule `CCC(C)N1C(=O)c2ccc(C)nc2C1=O` (stereo unspecified) returned a melting point of 105 to 106 °C.

In the case of `CC(N)=NS(=O)(=O)C=Cc1c(Cl)cccc1Cl`, the melting point fell in the range of 154 to 158 °C.

As to `COc1cccc(Nc2ccc(Nc3ncnc4cc(-c5ccccc5)sc34)cc2)c1`, the melting point lay within 189 to 191 °C.

In the case of `NS(=O)(=O)c1ccc(N2CCN(CC3OCCc4ccccc43)CC2)cc1` (racemic), the melting point stood at 218 °C.

Molecule `CCCOc1nc(C(F)(F)C(F)(F)F)cc(=O)n1-c1cc(O)c(Cl)cc1F` came in with a melting point of 109 to 111 °C.

As to `CC(C)Cn1c(=O)[nH]c2ncc(-c3ccc(O)cc3)nc21`, the melting point is 290 to 291 °C.

With `O=C(NC1=NN(c2ccccc2)C(c2ccccc2)C1)C(F)(F)F` (stereo unspecified), the melting point is 152 to 154 °C.

Turning to `O[C@@H]([C@H](O)[C@@H](COc1ccccc1)OCc1ccccc1)[C@@H](COc1ccccc1)OCc1ccccc1`, the melting point came out at 80 °C.

In the case of `O=S(=O)(c1cccs1)N(CCN1CCOCC1)c1cccc2cc(-c3nccs3)[nH]c12`, the melting point lay within 192 to 193 °C.

`CN1CCN(Cc2ccccc2)CC(NC(=O)c2n[nH]c3ccccc23)C1` (stereo unspecified): the melting point lay within 192 to 194 °C.

Regarding `Cc1c(Br)ccc2c1oc1ccccc12`, the melting point lay within 124 to 125 °C.

In turn, `O=C(Cn1nc2ccccc2n1)Nc1ccc(-n2nc(C(F)(F)F)cc2C2CC2)nc1` registered a melting point of 193 to 198 °C.

On to `Cc1nc(-c2ccccc2)cc(-c2ccc(C#N)o2)c1C(=O)NCCN1CCOCC1`, for which the melting point fell in the range of 141 to 143 °C.

Turning to `Oc1cc2c(cc1F)[C@H](O)[C@H](N1CCC(O)(c3ccc(F)cc3)CC1)CO2` (relative stereo), the melting point was 160 to 161 °C.

`COC(=O)C1(C)c2ccccc2Oc2ccccc21` gave a melting point of 91 to 92 °C.

`CC(O)c1ccc(-c2ccc(N)cc2)cc1` (stereo unspecified) showed a melting point of 111 to 115 °C.

The molecule `N#Cc1ccc(N2C(=O)N(CCF)C3(CCCC3)C2=O)cc1C(F)(F)F` gave a melting point of 115 °C.

Turning to `COc1ccc(-c2nc(CNc3ccccc3)nc3cc(OC)c(OC)cc23)cc1OC`, the melting point is 199 to 200 °C.

As to `CN1Cc2cccc(SCc3ccccc3)c2S1(=O)=O`, the melting point fell in the range of 119 to 122 °C.

In turn, `CCCCCS(=O)(=O)NC(=O)/C=C/c1ccc(OCCOC)cc1Oc1ncc(Br)cc1C` displayed a melting point of 160 °C.

`CC(C)Oc1ccc(COc2ccc(CC(=O)O)cc2Cl)cc1Cl` came in with a melting point of 129 to 130 °C.

As for `COP(=O)(Cc1cc(C(C)(C)C)c(O)c(C(C)(C)C)c1)c1ccccc1` (stereo unspecified), the melting point lay in the range of 112 to 114 °C.

The molecule `COC(=O)N1CC=C(c2ccc(N3C[C@H](CNC(C)=O)OC3=O)cc2)CC1` registered a melting point of 142 to 145 °C.

In turn, `NC(=O)c1ccc(-c2nc(O)c3c(n2)CCC3)cc1` registered a melting point of 201 °C.

Molecule `Oc1ccc(C(F)(F)F)c2ccccc12` showed a melting point of 132 to 133 °C.

For the molecule `Nc1cc(N2CCN(C34CC5CC(CC(C5)C3)C4)CC2)nc(N)n1`, the melting point lay within 265 to 268 °C.

Consider `Nc1ncnc2c1ncn2Cc1nc2cccc(F)c2c(=O)n1-c1ccccc1Cl`, for which the melting point fell in the range of 159 to 172 °C.

Turning to `NNc1ncccc1-c1ccccn1`, the melting point fell in the range of 64 to 65 °C.

`COc1cc(-c2cc(C(F)(F)F)nn2-c2ccc(S(N)(=O)=O)cc2)ccc1-c1cocn1` showed a melting point of 143 to 145 °C.

Consider `N#Cc1ccc(Oc2ccc(CC(=O)OCc3ccccc3)cc2)nc1`, for which the melting point was 96 to 97 °C.

As for `CCOC(=O)CCc1nnc(-c2nccs2)c2cc(OC)ccc12`, the melting point was 153 to 154 °C.

Turning to `CC1=CC(c2ccc(Cl)c(Cl)c2)C2=C(CCCC2=O)N1` (stereo unspecified), the melting point was in the range of 199 to 201 °C.

The molecule `Cc1cccc2c1C(=O)C1(CC1)S2` yielded a melting point of 128 °C.

In turn, `O=C(Cc1ccccc1)NC(SC(=O)c1ccccc1)C(=O)O` (stereo unspecified) showed a melting point of 133 to 138 °C.

Molecule `COc1cc(Cc2nccc3c(OC(C)=O)cc(OC(C)=O)cc23)cc(OC)c1OC` yielded a melting point of 118 to 120 °C.

`O=Cc1cc2ccc3c4ccccc4ccc3c2o1` yielded a melting point of 123 °C.

As for `COC(=O)c1ccc(Cc2cc3cc(Cl)ccc3n2S(=O)(=O)N2CCCCC2)cc1`, the melting point was found to be 133 °C.

`CC(=O)c1ccc(CNC(=O)c2cccnc2Oc2ccc3nonc3c2)cc1` registered a melting point of 154 to 156 °C.

In turn, `CC(C)c1nn(-c2ncc(C#N)cn2)cc1CCCO` returned a melting point of 153 to 154 °C.

`O=C(O)c1cccc(CC2COc3ccc(OCc4ccc5ccccc5n4)cc3C2O)c1` (stereo unspecified) registered a melting point of 193 to 195 °C.

As to `CC(=O)c1nccc(-c2ccc(Oc3ccc(F)cc3)cc2)n1`, the melting point is 61 to 63 °C.

For the molecule `N#Cc1sc2c(Cl)cccc2c1Cl`, the melting point was 124 to 128 °C.

The molecule `O=S(=O)(NCCc1ccc(C(O)CCCO)cc1)c1ccccc1Cl` (stereo unspecified) registered a melting point of 101 °C.

Molecule `CNc1nnc(C(C)(C)C)s1` displayed a melting point of 79 to 81 °C.

Turning to `CC(C)(C)OC(=O)NCCN(CC(=O)O)C(=O)OCc1ccccc1`, the melting point is 64.5 to 85 °C.

In turn, `CC(C)(C)N(NC(=O)c1ccco1)C(=O)c1ccccc1` displayed a melting point of 160 to 162 °C.

Molecule `O=C(O)C(O)c1cccc(OCc2ccccc2Cl)c1OCc1ccncc1` (stereo unspecified) displayed a melting point of 181 to 183 °C.

Turning to `COC(=O)c1cc(N)c(Oc2ccccc2)c(N2C(=O)CCC2=O)c1`, the melting point is 199 to 200 °C.

As to `CN(C)c1ccccc1CS(=O)(=O)c1nccn1-c1ccncc1`, the melting point lay in the range of 132 to 135 °C.

For the molecule `CCCCOc1ccc(S(=O)(=O)OC2CN(S(=O)(=O)c3ccc(OCCCC)cc3)C2)cc1`, the melting point was in the range of 90 to 93 °C.

For `CC(C)(O)CCCc1onc(-c2ccccc2)c1-c1ccc(S(N)(=O)=O)cc1`, the melting point lay in the range of 184 to 185 °C.

Molecule `Nc1ncccc1NCc1ccc(Oc2ccc(F)cc2)cc1` had a melting point of 117 to 118 °C.

`Ic1cnn(-c2cccnc2)c1`: the melting point fell in the range of 145 to 146 °C.

In turn, `CN(C)CCNS(=O)(=O)c1ccc(O)cc1` gave a melting point of 165 to 168 °C.

Regarding `COc1cccc(C(=O)c2cccc(F)c2)c1`, the melting point lay in the range of 56 to 67 °C.

Consider `O=C1CCc2c([nH]c3ccc(Cl)cc23)C1`, for which the melting point is 194 to 196 °C.

`N[C@@H]1C(=O)N(S(=O)(=O)O)[C@H]1C1CCCCC1` (relative stereo) displayed a melting point of 135 to 138 °C.

As for `CN(C)C(=O)n1nc2cc(Cl)ccc2c1N`, the melting point was 178 to 180 °C.

In the case of `CCN(CC)CC(=O)Nc1ccc([N+](=O)[O-])cc1`, the melting point was 65 to 66 °C.

The molecule `CCOC(=O)C(=O)Nc1nc(C(C)C)cs1` displayed a melting point of 54 to 57 °C.

In the case of `COc1ccc(C2=NN(c3ccc(OCC(N)=O)cc3)C(=O)C(C)(C)C2)cc1OC`, the melting point lay within 184 to 187 °C.

As to `CC1Cc2c(N3CCCC3CO)c(F)cc3c(=O)c(C(=O)O)cn1c23` (stereo unspecified), the melting point lay in the range of 235 to 237 °C.

The molecule `O=C(COc1ccc(Cl)c(Cl)c1)N1CCC2(CC1)Cn1cc([N+](=O)[O-])nc1O2` had a melting point of 218 to 220 °C.

Regarding `OCc1c[nH]c(=S)n1[C@H]1CCc2c(F)cc(F)cc2C1`, the melting point is 206 to 207 °C.

For `CC(C)C(=O)n1cc(C(=O)C2CSC(c3cccnc3)N2)c2ccccc21` (stereo unspecified), the melting point is 78 to 80 °C.

`O=C(c1cccs1)c1cnn2c(-c3cccc(-c4nnn(CCN5CCCC5)n4)c3)ccnc12` showed a melting point of 98 °C.

Consider `O=C(NCc1ccc2ccn(C3CCN(CCc4ccc(F)cc4)CC3)c2c1)C1CC1`, for which the melting point is 116 to 117 °C.

The molecule `O=C(O)C1CCc2c([nH]c3ccc(F)cc23)C1` (stereo unspecified) showed a melting point of more than 200 °C.

The record behind these values is a melting point compilation (Tetko et al.; mined from patent text by program, amines drawn as free bases though some values may be those of a salt).
